According to the NIST ThermoML archive (doi:10.1016/j.tca.2012.10.004):

Columns and labels:
[1] = xn = mol fraction of the nth substance listed; conditions: 101 kPa, Liquid, Pycnometric method
[2] = relative permittivity at zero frequency (dimensionless); xn = mol fraction of the nth substance listed; conditions: 101 kPa, Liquid, Coaxial cylinder capacitor

CN(CCO)CCO [N-methyldiethanolamine] + O=S1(=O)CCCC1
Conditions | mass density, [1] [kg/m3] | relative permittivity at zero frequency, [2]
293.15 K, x1 = 0.1001 | 1241.9 | 40.8
293.15 K, x1 = 0.2012 | 1214.9 | 38.3
293.15 K, x1 = 0.2999 | 1188 | 35.5
293.15 K, x1 = 0.4003 | 1163.1 | 33.5
293.15 K, x1 = 0.5005 | 1139.8 | 31.7
293.15 K, x1 = 0.6 | 1118.1 | 30.2
293.15 K, x1 = 0.7002 | 1097.7 | 28.4
293.15 K, x1 = 0.8011 | 1078.9 | 26.6
293.15 K, x1 = 0.8998 | 1059.9 | 24.6
293.15 K, x1 = 1 | 1041.6 | 22.9
298.15 K, x1 = 0.1001 | 1237.6 | 40.1
298.15 K, x1 = 0.2012 | 1210.5 | 37.6
298.15 K, x1 = 0.2999 | 1183.9 | 34.8
298.15 K, x1 = 0.4003 | 1159.1 | 32.8
298.15 K, x1 = 0.5005 | 1135.7 | 31
298.15 K, x1 = 0.6 | 1114.1 | 29.5
298.15 K, x1 = 0.7002 | 1093.6 | 27.7
298.15 K, x1 = 0.8011 | 1074.9 | 26
298.15 K, x1 = 0.8998 | 1055.9 | 24.1
298.15 K, x1 = 1 | 1037.9 | 22.4
303.15 K, x1 = 0.1001 | 1233.1 | 39.4
303.15 K, x1 = 0.2012 | 1205.9 | 36.9
303.15 K, x1 = 0.2999 | 1179.5 | 34.1
303.15 K, x1 = 0.4003 | 1154.8 | 32.1
303.15 K, x1 = 0.5005 | 1131.5 | 30.3
303.15 K, x1 = 0.6 | 1110 | 28.8
303.15 K, x1 = 0.7002 | 1089.6 | 27
303.15 K, x1 = 0.8011 | 1070.9 | 25.3
303.15 K, x1 = 0.8998 | 1051.9 | 23.6
303.15 K, x1 = 1 | 1034.1 | 21.8
308.15 K, x1 = 0.1001 | 1228.6 | 38.7
308.15 K, x1 = 0.2012 | 1201.5 | 36.1
308.15 K, x1 = 0.2999 | 1175.1 | 33.4
308.15 K, x1 = 0.4003 | 1150.4 | 31.3
308.15 K, x1 = 0.5005 | 1127.2 | 29.5
308.15 K, x1 = 0.6 | 1105.8 | 28.1
308.15 K, x1 = 0.7002 | 1085.6 | 26.3
308.15 K, x1 = 0.8011 | 1066.8 | 24.6
308.15 K, x1 = 0.8998 | 1048 | 22.9
308.15 K, x1 = 1 | 1030.3 | 21.3
313.15 K, x1 = 0.1001 | 1224.1 | 38
313.15 K, x1 = 0.2012 | 1197 | 35.5
313.15 K, x1 = 0.2999 | 1170.7 | 32.7
313.15 K, x1 = 0.4003 | 1146.2 | 30.6
313.15 K, x1 = 0.5005 | 1123.1 | 28.7
313.15 K, x1 = 0.6 | 1101.6 | 27.4
313.15 K, x1 = 0.7002 | 1081.5 | 25.6
313.15 K, x1 = 0.8011 | 1062.8 | 24
313.15 K, x1 = 0.8998 | 1044 | 22.2
313.15 K, x1 = 1 | 1026.5 | 20.8
318.15 K, x1 = 0.1001 | 1219.6 | 37.4
318.15 K, x1 = 0.2012 | 1192.4 | 34.6
318.15 K, x1 = 0.2999 | 1166.3 | 32
318.15 K, x1 = 0.4003 | 1141.9 | 29.9
318.15 K, x1 = 0.5005 | 1118.9 | 28
318.15 K, x1 = 0.6 | 1097.5 | 26.7
318.15 K, x1 = 0.7002 | 1077.5 | 24.9
318.15 K, x1 = 0.8011 | 1058.7 | 23.3
318.15 K, x1 = 0.8998 | 1040 | 21.7
318.15 K, x1 = 1 | 1022.7 | 20.3
323.15 K, x1 = 0.1001 | 1215.2 | 36.7
323.15 K, x1 = 0.2012 | 1187.6 | 33.9
323.15 K, x1 = 0.2999 | 1161.9 | 31.3
323.15 K, x1 = 0.4003 | 1137.5 | 29.2
323.15 K, x1 = 0.5005 | 1114.6 | 27.3
323.15 K, x1 = 0.6 | 1093.3 | 26
323.15 K, x1 = 0.7002 | 1073.3 | 24.2
323.15 K, x1 = 0.8011 | 1054.7 | 22.7
323.15 K, x1 = 0.8998 | 1035.9 | 21.2
323.15 K, x1 = 1 | 1018.9 | 19.8
328.15 K, x1 = 0.1001 | 1211.1 | 36.2
328.15 K, x1 = 0.2012 | 1183.3 | 33.2
328.15 K, x1 = 0.2999 | 1157.7 | 30.6
328.15 K, x1 = 0.4003 | 1133.2 | 28.5
328.15 K, x1 = 0.5005 | 1110.4 | 26.5
328.15 K, x1 = 0.6 | 1089.2 | 25.2
328.15 K, x1 = 0.7002 | 1069.2 | 23.5
328.15 K, x1 = 0.8011 | 1050.6 | 22.1
328.15 K, x1 = 0.8998 | 1032 | 20.5
328.15 K, x1 = 1 | 1015 | 19.3
